The nature of the data set: Dissolution, USP <711> Apparatus 2 paddle method at 50 rpm. The note with it: 500 ml 0.01 N HCl or 50 mM phosphate buffer (pH 6.8), 0.5% sodium lauryl sulfate, paddle 50 rpm. The class given is physicochemical. As for the experimental part:
The dissolution characteristics of the spray-dried formulation prepared in Example 2 above were measured by suspending the formulation in 500 ml 0.01 N HCl or 50 mM phosphate buffer (pH 6.8), 0.5% sodium lauryl sulfate, and measuring dissolution by the USP <711> Apparatus 2 (paddle method) at 50 rpm. As a control, particles of crystalline active ingredient N-(3-(2-(6-amino-4-(trifluoromethyl)pyridin-3-yl)-4-morpholinopyrido[3,2-d]pyrimidin-6-yl)-2-fluorophenyl)-3-fluoropropane-1-sulfonamide (as prepared in Example 7 below) was suspended in either 500 ml 0.01 N HCl or 50 mM phosphate buffer (pH 6.8), 0.5% sodium lauryl sulfate and dissolution measured by the same method.

Regarding `Nc1cc(C(F)(F)F)c(-c2nc(N3CCOCC3)c3nc(-c4cccc(NS(=O)(=O)CCCF)c4F)ccc3n2)cn1` [crystalline active ingredient, N-(3-(2-(6-amino-4-(trifluoromethyl)pyridin-3-yl)-4-morpholinopyrido[3,2-d]pyrimidin-6-yl)-2-fluorophenyl)-3-fluoropropane-1-sulfonamide], the “dissolution state after 60 minutes” value was “still not fully dissolved”.

The record behind these values is patent US10695296B2, “Formulations, methods, kit, and dosage forms for improved stability of an active pharmaceutical ingredient” (Asana BioSciences, LLC, priority 2017, dated 2020).
